Assays:
[1] = test system: exogenously senescent human primary fibroblasts (UVA-P4, UVA-P7, UVA-P9 passage cells); experiment: Anti-aging efficacy evaluation of VC on exogenously senescent (light aging) cells, proliferation-promoting effect (ATP detection); format: cell-based; conditions: exogenous senescence (light aging), 10 ug/mL VC, 48 h
Text: […]

[2] = test system: endogenously senescent human primary fibroblasts (P4, P7, P9, P12 passage cells); experiment: Anti-aging efficacy evaluation of VC on endogenously senescent (naturally senescent) cells, proliferation-promoting effect (ATP detection); format: cell-based; conditions: endogenous senescence, 10 ug/mL VC, 48 h
Text: […]

## O=C1O[C@H]([C@@H](O)CO)C(O)=C1O [VC]
[1]; early-stage senescent cells (UVA-P4)
  proliferation-promoting effect: relatively significant proliferation-promoting effect
[1]; late-stage senescent cells (UVA-P9)
  proliferation-promoting effect: no proliferation-promoting effect
[1]; middle-stage senescent cells (UVA-P7)
  proliferation-promoting effect: relatively poor proliferation-promoting effect
[2]; early-stage senescent cells (P7)
  proliferation-promoting effect: relatively poor proliferation-promoting effect
[2]; growth-stage cells (P4)
  proliferation-promoting effect: relatively significant proliferation-promoting effect
[2]; late-stage senescent cells (P12)
  proliferation-promoting effect: basically no proliferation-promoting effect
[2]; middle-stage senescent cells (P9)
  proliferation-promoting effect: basically no proliferation-promoting effect

Source: US20260139241A1, “METHOD FOR CONSTRUCTING SENESCENT CELLSAND METHOD FOR EVALUATING ANTI-SENESCENCE EFFICACY” (JAKA BIOTECH Co,.Ltd., priority 2022, published 2026)
